Laboratory results published in publication PMC9182199, “Borylated 2,3,4,5-Tetrachlorophthalimide and Their 2,3,4,5-Tetrachlorobenzamide Analogues: Synthesis, Their Glycosidase Inhibition and Anticancer Properties in View to Boron Neutron Capture Therapy” (Molecules, 2022).

What was measured:
Du145 = experiment: MTT cell growth inhibition: Du145; format: cell-based; details: Homo sapiens, DU-145, read-out: GI50 = Concentration (µM) that inhibits cell growth by 50%; Du145 prostate carcinoma; dose response
MIA-Pa-Ca2 = experiment: MTT cell growth inhibition: MIA-Pa-Ca2; format: cell-based; details: Homo sapiens, MIA PaCa-2, read-out: GI50 = Concentration (µM) that inhibits cell growth by 50%; MIA-Pa-Ca2 pancreatic carcinoma; dose response
panel of 15 glycosidases = experiment: Glycosidase inhibition, laboratory 1: whole panel; format: biochemical; details: laboratory 1, methanol; range or words over enzymes
Excerpt: The enzymes α-glucosidase (from yeast), β-glucosidases (from almond and bovine liver), α-galactosidase (from coffee beans), β-galactosidase (from bovine liver), α-mannosidase (from Jack bean), β-mannosidase (from snail), α-L-rhamnosidase (from Penicillium decumbens), α-L-fucosidase (from bovine kidney), trehalase (from porcine kidney), β-glucuronidases (from E. coli and bovine liver), amyloglucosidase (from A. niger), para-nitrophenyl glycosides, and various disaccharides were purchased from Sigma-Aldrich Co (St Louis, MO, USA).
Brush border membranes were prepared from the rat small intestine according to the method of Kessler et al. and were assayed at pH 6.8 for rat intestinal maltase using maltose. For rat intestinal maltase, porcine kidney trehalase, and A. niger amyloglucosidase activities, the reaction mixture contained 25 mM maltose and the appropriate amount of enzyme, and the incubations were performed for 10–30 min at 37 °C. The reaction was stopped by heating at 100 °C for 3 min. […] The absorbance at 505 nm was measured to determine the amount of the released D-glucose. Other glycosidase activities were determined using an appropriate para-nitrophenyl glycoside as substrate at the optimum pH of each enzyme. […] The released para-nitrophenol was measured spectrometrically at 400 nm. […]

Row | SMILES | GI50 (Du145) [µM] | GI50 (MIA-Pa-Ca2) [µM] | percent inhibition across the glycosidase panel (panel of 15 glycosidases)
1 | CC1(C)OB(c2cccc(CN3C(=O)c4c(Cl)c(Cl)c(Cl)c(Cl)c4C3=O)c2)OC1(C)C [meta 3, 4,5,6,7-Tetrachloro-2-(3-(4,4,5,5-tetramethyl-1,3,2-dioxaborolan-2-yl)benzyl)isoindoline-1,3-dione] | 30 ± 0.41 | 38 ± 2.9 | 
2 | CC1(C)OB(c2ccccc2NC(=O)c2cc(Cl)c(Cl)c(Cl)c2Cl)OC1(C)C [ortho 5, 2,3,4,5-Tetrachloro-N-(2-(4,4,5,5-tetramethyl-1,3,2-dioxaborolan-2-yl)phenyl)benzamide] | 16 ± 1.9 | 14 ± 0.25 | no significant inhibition
3 | CC1(C)OB(c2ccc(CN3C(=O)c4c(Cl)c(Cl)c(Cl)c(Cl)c4C3=O)cc2)OC1(C)C [para 3, 4,5,6,7-Tetrachloro-2-(4-(4,4,5,5-tetramethyl-1,3,2-dioxaborolan-2-yl)benzyl)isoindoline-1,3-dione] | 5.5 ± 0.23 | 9.2 ± 1.9 | 
